Earlier results, collected in patent publication US11865201B2, “Product for dyeing keratinous material, containing aminosilicone, a chromophoric compound and ethoxylated fatty acid ester” (Henkel AG & Co. KGaA, priority 2019, dated 2024).

Details: 25° C.

For `CCN(Cc1cccc(S(=O)(=O)[O-])c1)c1ccc(C(=C2C=CC(=[N+](CC)Cc3cccc(S(=O)(=O)[O-])c3)C=C2)c2ccccc2S(=O)(=O)[O-])cc1.[Na+].[Na+]` [Acid Blue 9], the solubility in water is given as “more than 20 wt. %”.
For `O=S(=O)([O-])c1ccc(N=Nc2c(O)ccc3ccccc23)cc1.[Na+]` [Acid Orange 7, sodium salt of 4-[(2-hydroxy-1-naphthyl)azo]benzene sulphonate], the solubility in water is given as “more than 7 g/L”.
In the case of `Nc1cc(S(=O)(=O)[O-])cc2cc(S(=O)(=O)[O-])c(N=Nc3ccccc3)c(O)c12.[Na+].[Na+]` [Acid Red 33, diantrium salt of 5-amino-4-hydroxy-3-(phenylazo)-naphthalene-2,7-disulphonate], the solubility in water is given as 2500 µg/mL.
For `O=C([O-])c1c(Cl)c(Cl)c(Cl)c(Cl)c1-c1c2c(Br)cc(=O)c(Br)c-2oc2c(Br)c(O)cc(Br)c12.O=C([O-])c1c(Cl)c(Cl)c(Cl)c(Cl)c1-c1c2c(Br)cc(=O)c(Br)c-2oc2c(Br)c(O)cc(Br)c12.[Na+].[Na+]` [Acid Red 92, disodium salt of 3,4,5,6-tetrachloro-2-(1,4,5,8-tetrabromo-6-hydroxy-3-oxoxanthen-9-yl)benzoic acid], the solubility in water is listed as “greater than 10 g/L”.
For `O=C([O-])C1=NN(c2ccc(S(=O)(=O)[O-])cc2)C(=O)C1N=Nc1ccc(S(=O)(=O)[O-])cc1.[Na+].[Na+].[Na+]` (centres unmarked) [Acid Yellow 23, trisodium salt of 4,5-dihydro-5-oxo-1-(4-sulfophenyl)-4-((4-sulfophenyl)azo)-1H-pyrazole-3-carboxylic acid], the “solubility in water (in words)” value is given as “highly soluble in water”.
